The target in the test is T1, wtKIT (Homo sapiens, UniProt P10721).
T1 construct: 1888289AM in the reaction mixtures
The test can be described thus: HTRF biochemical assay, wtKIT (phosphorylation of a peptide substrate). Particulars: Table 4. As for the experimental part:
Exemplary compounds were tested for ability to inhibit the phosphorylation of a peptide substrate by the tyrosine kinase wt KIT, PDGFRα, or CSF-1R. Assay procedures and results are described below.
Enzyme, substrate, and cofactors (ATP and Mn^2+) are combined in a well of a microtiter plate and incubated for 3 hours at 25° C. At the end of the incubation, the reaction is quenched by the addition of an EDTA-containing buffer.
The substrate used in the CSF-1R and PDGFRα assay is FAM-[…]-CONH2 (FAM is carboxyfluorescein). Peptide should be >95% purity. The substrate for the KIT assay is FAM-[…]-NH2.
• 1. To a well of a 384-wellplate add 5 μL of 2× enzyme buffer (or control). • 2. Add 100 nL of 100× compound. Enzyme and compound may be pre-incubated at this time if desired. • 3. Add 5 μL of 2× substrate buffer. • 4. Incubate plate at 25° C. for 3 hours. • 5. Add 10 uL of anti-phosphotyrosine antibody buffer. • 6. Read plate in BioTek Synergy Reader. Reaction Conditions for wtKIT Assay
• 100 mM HEPES, pH 7.5 0.1% BSA • 0.01% Triton x-100 • 1 mM DTT • 10 mM MnCl2 • 10 μM Sodium Orthovanadate • 10 μM Beta-Glycerophosphate • 400 μM ATP • 1% DMSO (from compound) • 1 μM FAM-[…]-CONH2, 5.0 nM wtKIT Enzyme (1888289AM)* • *Specific activity may vary from lot to lot. Enzyme concentration may need to be adjusted to yield 10-20% conversion of substrate to product.
For orientation: Time-resolved FRET reads energy transfer from a long-lived donor to a nearby acceptor.

Structures are written as SMILES.

In general, IC50 refers to the point on the concentration scale where inhibition reaches its midpoint.

T1 sequence (P10721 26-976): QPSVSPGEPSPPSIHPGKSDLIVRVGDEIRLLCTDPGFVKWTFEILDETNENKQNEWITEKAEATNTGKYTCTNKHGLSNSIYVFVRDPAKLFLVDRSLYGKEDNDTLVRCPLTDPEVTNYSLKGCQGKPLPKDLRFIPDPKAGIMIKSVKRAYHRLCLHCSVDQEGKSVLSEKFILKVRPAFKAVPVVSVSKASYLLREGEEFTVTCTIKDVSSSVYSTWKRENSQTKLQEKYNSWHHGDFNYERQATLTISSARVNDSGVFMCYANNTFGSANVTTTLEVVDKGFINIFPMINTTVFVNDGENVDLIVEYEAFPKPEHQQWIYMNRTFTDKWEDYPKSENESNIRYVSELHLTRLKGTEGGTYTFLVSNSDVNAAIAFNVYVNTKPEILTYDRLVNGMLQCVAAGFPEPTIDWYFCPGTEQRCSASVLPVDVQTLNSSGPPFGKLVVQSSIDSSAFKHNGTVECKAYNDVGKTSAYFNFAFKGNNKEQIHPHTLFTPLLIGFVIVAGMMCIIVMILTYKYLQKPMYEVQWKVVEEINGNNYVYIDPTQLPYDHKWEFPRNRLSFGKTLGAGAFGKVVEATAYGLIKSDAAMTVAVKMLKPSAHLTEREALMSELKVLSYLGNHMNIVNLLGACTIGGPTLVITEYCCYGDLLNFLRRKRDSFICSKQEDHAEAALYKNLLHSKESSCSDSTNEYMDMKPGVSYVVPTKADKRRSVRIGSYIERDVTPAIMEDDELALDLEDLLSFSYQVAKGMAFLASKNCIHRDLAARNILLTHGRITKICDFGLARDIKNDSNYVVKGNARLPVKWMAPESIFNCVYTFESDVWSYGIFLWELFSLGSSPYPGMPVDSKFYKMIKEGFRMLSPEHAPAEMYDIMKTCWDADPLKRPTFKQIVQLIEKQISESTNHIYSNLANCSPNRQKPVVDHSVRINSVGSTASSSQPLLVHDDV

For the molecule `Cc1ccc(-c2noc([C@H]3C[C@@H]3F)n2)cc1NC(=O)c1cnc2cc3c(cn12)COC3C` (single isomer, unassigned) [Compound I-471, (6R*)—N-[5-[5-[(1R,2S)-2-fluorocyclopropyl]-1,2,4-oxadiazol-3-yl]-2-methyl-phenyl]-6-methyl-5-oxa-1,10-diazatricyclo[7.3.0.03,7]dodeca-2,7,9,11-tetraene-12-carboxamide], the IC50 was at most 50 nM.
For `Cc1ccc(-c2ncon2)cc1NC(=O)c1cnc2cc(N(C)C)ccn12` [Compound I-718] the value was at most 50 nM; for `Cc1ccc(-c2noc([C@H]3C[C@@H]3F)n2)cc1NC(=O)c1cnc2cc(COCC3(O)CC3)ccn12` [Compound I-622, N-(5-(5-((1R,2S)-2-fluorocyclopropyl)-1,2,4-oxadiazol-3-yl)-2-methylphenyl)-7-(((1-hydroxycyclopropyl)methoxy)methyl)imidazo[1,2-a]pyridine-3-carboxamide], at most 50 nM; for `Cc1ccc(-c2noc(CC3CCCO3)n2)cc1NC(=O)c1cnc2cc(Cl)ccn12` (centres unmarked) [Compound I-615, 7-Chloro-N-[2-methyl-5-[5-(tetrahydrofuran-2-ylmethyl)-1,2,4-oxadiazol-3-yl]phenyl]imidazo[1,2-a]pyridine-3-carboxamide], at most 50 nM.
The value for `CCc1nc(-c2ccc(C)c(NC(=O)c3cnc4cc(COCCO)ccn34)c2)no1` [Compound I-754] was at most 50 nM; that for `Cc1ccn2c(C(=O)Nc3cc(-c4noc(-c5cccnn5)n4)ccc3C)cnc2c1` [Compound I-550] was 50 to 500 nM; that for `CCc1nc(-c2ccc(C)c(NC(=O)c3cnc4cc(-c5csc(CO)n5)ccn34)c2)no1` [Compound I-672] was at most 50 nM.
The value for `Cc1ccc(-c2noc([C@H]3C[C@@H]3F)n2)cc1NC(=O)c1cnn2ccc(F)cc12` [Compound I-496, 5-fluoro-N-[5-[5-[(1R,2S)-2-fluorocyclopropyl]-1,2,4-oxadiazol-3-yl]-2-methylphenyl]pyrazolo[1,5-a]pyridine-3-carboxamide] was at most 50 nM.
On to `COc1ccn2c(C(=O)Nc3cc(-c4noc(CC5CCCCO5)n4)ccc3C)cnc2c1` (centres unmarked) [Compound I-592, 7-methoxy-N-(2-methyl-5-(5-((tetrahydro-2H-pyran-2-yl)methyl)-1,2,4-oxadiazol-3-yl)phenyl)imidazo[1,2-a]pyridine-3-carboxamide], for which the IC50 is at most 50 nM.
The value for `Cc1ccn2c(C(=O)Nc3cc(-c4noc(-c5nc(C)oc5C)n4)ccc3C)cnc2c1` [Compound I-551] was at most 50 nM; that for `Cc1nc(-c2ccc(C)c(NC(=O)c3cnc4ccc(-c5cscn5)cn34)c2)no1` [Compound I-542, N-(2-methyl-5-(5-methyl-1,2,4-oxadiazol-3-yl)phenyl)-6-(thiazol-4-yl)imidazo[1,2-a]pyridine-3-carboxamide] was at most 50 nM; that for `Cc1ccc(-c2ncon2)cc1NC(=O)c1cnc2cc(F)ccn12` [Compound I-744] was 500 to 5000 nM.
For `Cc1ccc(-c2noc(-c3ccccc3)n2)cc1NC(=O)c1cnc2cc(COCCO)ccn12` [Compound I-719] the value was at most 50 nM; for `Cc1ccn2c(C(=O)Nc3cc(-c4noc(CC5CCCCO5)n4)ccc3C)cnc2c1` (centres unmarked) [Compound I-583, 7-methyl-N-(2-methyl-5-(5-((tetrahydro-2H-pyran-2-yl)methyl)-1,2,4-oxadiazol-3-yl)phenyl)imidazo[1,2-a]pyridine-3-carboxamide], at most 50 nM; for `Cc1ccc(-c2noc(N3CC(F)(F)C3)n2)nc1NC(=O)c1cnc2ccccn12` [Compound I-711], 50 to 500 nM.
For `Cc1ccc(-c2noc(N3CC(F)(F)C3)n2)cc1NC(=O)c1cnc2cc(Cl)ccn12` [Compound I-601, 7-chloro-N-(5-(5-(3,3-difluoroazetidin-1-yl)-1,2,4-oxadiazol-3-yl)-2-methylphenyl)imidazo[1,2-a]pyridine-3-carboxamide] the value was at most 50 nM.
`Cc1ccn2c(C(=O)Nc3cc(-c4noc(CCC(C)(O)C(F)(F)F)n4)ccc3C)cnc2c1` (single isomer, unassigned) [Compound I-516]: the IC50 is at most 50 nM.
The value for `Cc1ccc(-c2noc(C3CC(O)(C(F)F)C3)n2)cc1NC(=O)c1cnc2ccccn12` (centres unmarked) [Compound I-538] was 50 to 500 nM; that for `Cc1ccc(-c2noc(N3CC(F)(F)C3)n2)cc1NC(=O)c1cnc2cc(F)c(Cl)cn12` [Compound I-610] was 50 to 500 nM; that for `Cc1ccc(-c2noc([C@H]3C[C@@H]3F)n2)cc1NC(=O)c1cnc2cc(CCC(C)(C)CO)ccn12` [Compound I-474, N-[5-[5-[(1R,2S)-2-fluorocyclopropyl]-1,2,4-oxadiazol-3-yl]-2-methyl-phenyl]-7-(4-hydroxy-3,3-dimethyl-butyl)imidazo[1,2-a]pyridine-3-carboxamide] was at most 50 nM.
For `Cc1ccc(-c2noc([C@@H]3CC4(CC4)CN3)n2)cc1NC(=O)c1cnc2cc(Cl)ccn12` [Compound I-627, (S)—N-(5-(5-(5-azaspiro[2.4]heptan-6-yl)-1,2,4-oxadiazol-3-yl)-2-methylphenyl)-7-chloroimidazo[1,2-a]pyridine-3-carboxamide] the value was at most 50 nM; for `Cc1ccc(-c2noc([C@H](C)O)n2)cc1NC(=O)c1cnc2cc(-c3cscn3)ccn12` [Compound I-721], at most 50 nM.
For `Cc1ccc(-c2noc([C@H]3C[C@@H]3F)n2)cc1NC(=O)c1cnc2cc(CCCC(C)(C)O)ccn12` [Compound I-452, N-[5-[5-[(1R,2S)-2-fluorocyclopropyl]-1,2,4-oxadiazol-3-yl]-2-methyl-phenyl]-7-(4-hydroxy-4-methyl-pentyl)imidazo[1,2-a]pyridine-3-carboxamide] the value was at most 50 nM.
With `Cc1ccc(-c2noc([C@H](O)CO)n2)cc1NC(=O)c1cnc2cc(Cl)ccn12` [Compound I-604], the IC50 was 500 to 5000 nM.
As for `Cc1ccc(-c2noc(C[C@H](O)C(F)F)n2)cc1NC(=O)c1cnc2cc(OCC(C)O)ccn12` (stereo partly drawn) [Compound I-571, N-(5-(5-((S)-3,3-difluoro-2-hydroxypropyl)-1,2,4-oxadiazol-3-yl)-2-methylphenyl)-7-(2-hydroxypropoxy)imidazo[1,2-a]pyridine-3-carboxamide], the IC50 was at most 50 nM.
For `Cc1ccc(-c2noc([C@H]3C[C@@H]3F)n2)cc1NC(=O)c1cnc2cc(C(C)(C)O)ccn12` [Compound I-456] the value was at most 50 nM; for `CCc1nc(-c2ccc(C)c(NC(=O)c3cnc4cc(OC)ccn34)c2)no1` [Compound I-737], at most 50 nM; for `Cc1ccn2c(C(=O)Nc3cc(-c4noc(-c5cccnc5)n4)ccc3C)cnc2c1` [Compound I-726], 50 to 500 nM.
Take `Cc1nc(-c2ccc(C)c(NC(=O)c3cnn4cc(-c5cscn5)ccc34)c2)no1` [Compound I-559, N-(2-methyl-5-(5-methyl-1,2,4-oxadiazol-3-yl)phenyl)-6-(thiazol-4-yl)pyrazolo[1,5-a]pyridine-3-carboxamide]: the IC50 is at most 50 nM.
The value for `Cc1nc(-c2ccc(C)c(NC(=O)c3cnc4cc(C5CCNC5=O)ccn34)c2)no1` (centres unmarked) [Compound I-448] was 500 to 5000 nM.
The value for `Cc1ccc(-c2noc(N3CC(F)(F)C3)n2)cc1NC(=O)c1cnn2cc(F)ccc12` [Compound I-626] was 50 to 500 nM.
The value for `COc1ccn2c(C(=O)Nc3cc(-c4noc(-c5ccccn5)n4)ccc3C)cnc2c1` [Compound I-536, 7-methoxy-N-(2-methyl-5-(5-(pyridin-2-yl)-1,2,4-oxadiazol-3-yl)phenyl)imidazo[1,2-a]pyridine-3-carboxamide] was at most 50 nM; that for `Cc1ccc(-c2noc([C@H]3C[C@@H]3F)n2)cc1NC(=O)c1cnc2ccc(COCC(C)(C)O)cn12` [Compound I-455, N-[5-[5-[(1R,2S)-2-fluorocyclopropyl]-1,2,4-oxadiazol-3-yl]-2-methyl-phenyl]-6-[(2-hydroxy-2-methyl-propoxy)methyl]imidazo[1,2-a]pyridine-3-carboxamide] was at most 50 nM; that for `Cc1ccc(-c2noc(C[C@H](O)C(F)F)n2)cc1NC(=O)c1cnc2ccc(-c3ccn(C)n3)cn12` [Compound I-562, (S)—N-(5-(5-(3,3-difluoro-2-hydroxypropyl)-1,2,4-oxadiazol-3-yl)-2-methylphenyl)-6-(1-methyl-1H-pyrazol-3-yl)imidazo[1,2-a]pyridine-3-carboxamide] was at most 50 nM.
Turning to `Cc1nc(-c2ccc(C)c(NC(=O)c3cnc4cc(OCCCN5CCCC5)ccn34)c2)no1` [Compound I-629, N-(2-methyl-5-(5-methyl-1,2,4-oxadiazol-3-yl)phenyl)-7-(3-(pyrrolidin-1-yl)propoxy)imidazo[1,2-a]pyridine-3-carboxamide], the IC50 is at most 50 nM.
The value for `Cc1ccn2c(C(=O)Nc3cc(-c4noc(CC(=O)CF)n4)ccc3C)cnc2c1` [Compound I-589] was 500 to 5000 nM; that for `COCc1ccn2c(C(=O)Nc3cc(-c4noc(CCN5CCCCC5)n4)ccc3C)cnc2c1` [Compound I-666] was 50 to 500 nM; that for `Cc1ccc(-c2noc([C@H]3C[C@@H]3F)n2)cc1NC(=O)c1cnn2cccc(F)c12` [Compound I-487] was 50 to 500 nM.

(Values after US20240254119A1 (THIRD HARMONIC BIO, INC., priority 2022, published 2024).)
